Measured values: paper PMC9760738, “Pharmacokinetics, absorption, distribution, metabolism and excretion of the MEK inhibitor zapnometinib in rats” (Frontiers in Pharmacology, 2022)
Values joined by “and” are separate entries in the source; they are usually repeats but may differ in a detail not shown here. Equal values may be shown once.

What was measured:
[1] = QWBA tissue radioactivity, single oral 30 mg/kg, female partially pigmented rats (Group 3); Table 6 columns c2-c8 = 0.5, 2, 4, 8, 24, 72, 168 h; format: in vivo, rat; settings: 2 h
Method: The whole-body autoradiography techniques by Ullberg and Larsson was used in this study ([Ullberg and Larsson 1981]). Following a single oral administration of [^14C]-zapnometinib to seven male and seven female partially pigmented rats (Group 3) and four male albino rats (Group 4), one animal per sex (where appropriate) was killed at the following time points post dose: Group 3 (pigmented): 0.5, 2, 4, 8, 24, 72, and 168 h, Group 4 (albino): 2, 24, 72 and 168 h. At sacrifice, each rat was anaesthetized with isoflurane and a blood sample (ca 5 ml) was collected by cardiac puncture into a tube containing K2EDTA anticoagulant. Blood was centrifuged at 2000 ×g for 10 min at 4°C to obtain plasma, which was transferred into plain tubes pending measurement of radioactivity concentration. The blood cells were also retained for analysis.
The rat carcasses were immediately attached to a plate and frozen in a bath of n-heptane and solid CO2 at ca –80°C and then stored at –20 ± 10°C until taken for sectioning. […] [^14C]-Blood standards containing six different known concentrations of radioactivity were used to construct the calibration line for the quantitative determination of tissue concentrations of radioactivity. […] The electronic images of all sections were analyzed at Labcorp–Huntingdon using a validated image analysis package (Seescan Densitometry software, version 2.0). […]

[2] = Excretion balance of radioactivity after single oral 30 mg/kg [14C]-zapnometinib, Sprague-Dawley rats (Group 2); format: in vivo, rat; settings: for Total recovery: 0-168 h; for Carcass: 168 h
Method: Oral doses of [^14C]-zapnometinib were administered as a suspension in 5% DMSO (v/v), 30% PEG 400 (v/v) and 7.5% (w/v) Captisol in water at a dose level of 30 mg/kg to male and female rats by gastric intubation at a dose volume of 4 ml/kg body weight. The selected dose level (30 mg/kg) was below the no observed adverse effect level (100 mg/kg), the formulation was selected based on data obtained in other nonclinical studies. The radioactive dose administered to each animal was quantified from the weight (excretion studies only) or volume of dosing formulation given, and its mean measured radioactivity concentration. The weight of test compound administered to each rat was determined from the radioactive dose administered and the specific activity of the test material.
Total excreta from three male and three female rats were collected after single oral doses of [^14C]-zapnometinib. Urine was collected into containers cooled in solid CO2 and feces were collected separately at ambient temperature. Expired air was trapped in 1M potassium hydroxide solution. After completion of the final excreta collection, rats were killed by cervical dislocation following sedation, and the carcasses retained for analysis.
Radioactivity was measured by liquid scintillation analysis using Wallac® 1409 automatic liquid scintillation counters. Samples were prepared according to the company’s SOP (see Supplementary Methods). Briefly, replicate weighed samples were mixed with Ultima Gold™ scintillation cocktail (PerkinElmer, United States) for the measurement of radioactivity. Radioactivity in amounts less than twice that of the background concentration in the sample under investigation was below the limit of accurate quantification (BLQ). […]
For Liquid scintillation analyses, carcasses from rats (Group 2) were solubilized by digestion at ca 55 °C overnight in a solution prepared from sodium hydroxide (80 g) and Triton X-405 (100 mL) in purified water (600 mL) and methanol (300 mL). After measurement of total sample weight (as appropriate), replicate portions of diluted dose solutions (ca 0.1 mL), plasma (ca 0.05 – 0.25 mL), urine (ca 0.05 – 0.25 mL), expired air trap solution (ca 1 mL) and cage wash (ca 1 mL) were mixed directly with Ultima Gold scintillation cocktail (5 mL; 15 mL for air traps) for measurement of radioactivity concentrations. Similarly, replicate weighed portions of digested carcass solutions (ca 1 mL plus 1 mL purified water) were mixed with Ultima Gold (10 mL) scintillation cocktail for measurement of radioactivity concentrations. Feces were weighed, then homogenized to a smooth paste after the addition of an appropriate volume (approximately 1.5 volumes) of purified water and the weight of each homogenate was recorded. Replicate weighed portions of feces (ca 0.2 g) and blood cells (ca. 0.25 g) were placed on Combustocones, which were then capped with cellulose pads and burned in oxygen using […]

[3] = individual males 7M, 8M, 9M, rows in order of periods 0-24, 0-48, 0-72, 0-96, 0-120, 0-144, 0-168 h

In the case of `O=C(O)c1ccc(F)c(F)c1Nc1ccc(I)cc1Cl` [zapnometinib, 2-(2-Chloro-4-iodophenylamino)-3,4-difluorobenzoic acid], the “Radioactivity in all remaining tissues” value [1] is reported as at most 74.4 µg equivs/g, the “Cumulative excretion, urine” value ([2]; 0-6 h, male, mean) is reported as 0.23 % administered dose and the “Cumulative excretion, faeces” value ([2]; 0-24 h, male, mean) is reported as 79.34 % administered dose. For the same compound, the “Cumulative excretion, urine” value ([2]; 0-24 h, male, mean) was 2.20 % administered dose, the “Cumulative, cage wash” value ([2]; 0-24 h, male, mean) was 0.14 % administered dose and the “Cumulative, expired air” value ([2]; 0-24 h, male, mean) was 0.02 % administered dose. The “Cumulative excretion, faeces” value ([2]; 0-48 h, male, mean) was 89.32 % administered dose, the “Cumulative excretion, urine” value ([2]; 0-48 h, male, mean) was 2.68 % administered dose and the “Cumulative, cage wash” value ([2]; 0-48 h, male, mean) was 0.18 % administered dose. For the same compound, the “Cumulative, expired air” value ([2]; 0-48 h, male, mean) was 0.02 % administered dose, the “Cumulative excretion, faeces” value ([2]; 0-72 h, male, mean) was 90.12 % administered dose and the “Cumulative excretion, urine” value ([2]; 0-72 h, male, mean) was 2.77 % administered dose. The “Cumulative, cage wash” value ([2]; 0-72 h, male, mean) was 0.19 % administered dose, the “Cumulative, expired air” value ([2]; 0-72 h, male, mean) was 0.02 % administered dose and the “Cumulative excretion, faeces” value ([2]; 0-96 h, male, mean) was 90.28 % administered dose. The “Cumulative excretion, urine” value ([2]; 0-96 h, male, mean) was 2.80 % administered dose, the “Cumulative, cage wash” value ([2]; 0-96 h, male, mean) was 0.21 % administered dose and the “Cumulative excretion, faeces” value ([2]; 0-120 h, male, mean) was 90.34 % administered dose. For the same compound, the “Cumulative excretion, urine” value ([2]; 0-120 h, male, mean) was 2.82 % administered dose, the “Cumulative, cage wash” value ([2]; 0-120 h, male, mean) was 0.21 % administered dose and the “Cumulative excretion, faeces” value ([2]; 0-144 h, male, mean) was 90.37 % administered dose. For the same compound, the “Cumulative excretion, urine” value ([2]; 0-144 h, male, mean) was 2.83 % administered dose, the “Cumulative, cage wash” value ([2]; 0-144 h, male, mean) was 0.21 % administered dose and the Total recovery ([2]; female, mean) was 98.26 % Administered dose. For the same compound, the Total recovery ([2]; male, mean) was 93.72 % Administered dose, the Carcass ([2]; female, mean) was 0.19 % Administered dose and the Carcass ([2]; male, mean) was 0.20 % Administered dose. For the same compound, the Radioactivity in carcasses ([2]; 168 h post dose, both sexes) was about 0.2%, the “Cumulative, expired air” value ([2]; individual males 7M, 8M, 9M, periods 0-24, 0-48, 0-72 h) was 0.02 % administered dose and the “Cumulative excretion, urine” value ([2]; individual males 7M, 8M, 9M, rows in order of periods 0-6, 0-24, 0-48, 0-72, 0-96, 0-120, 0-144, 0-168 h) was 0.23 % administered dose and 0.16 % administered dose and 0.30 % administered dose and 2.69 % administered dose and 1.99 % administered dose and 1.92 % administered dose and 3.13 % administered dose and 2.48 % administered dose and 2.43 % administered dose and 3.20 % administered dose and 2.55 % administered dose and 2.56 % administered dose and 3.22 % administered dose and 2.58 % administered dose and 2.61 % administered dose and 3.23 % administered dose and 2.59 % administered dose and 2.63 % administered dose and 3.24 % administered dose (2×) and 2.60 % administered dose (2×) and 2.64 % administered dose and 2.65 % administered dose. The “Cumulative excretion, faeces” value [2, 3] was 81.33 % administered dose and 77.94 % administered dose and 78.75 % administered dose and 90.61 % administered dose and 88.87 % administered dose and 88.48 % administered dose and 91.30 % administered dose and 89.52 % administered dose and 89.53 % administered dose and 91.37 % administered dose and 89.65 % administered dose and 89.82 % administered dose and 91.41 % administered dose and 89.69 % administered dose and 89.92 % administered dose and 91.44 % administered dose and 89.72 % administered dose and 89.96 % administered dose and 91.46 % administered dose and 89.89 % administered dose and 89.99 % administered dose and the “Cumulative, cage wash” value [2, 3] was 0.14 % administered dose (2×) and 0.16 % administered dose (4×) and 0.11 % administered dose and 0.22 % administered dose and 0.19 % administered dose and 0.23 % administered dose (5×) and 0.20 % administered dose and 0.15 % administered dose and 0.24 % administered dose (3×) and 0.26 % administered dose and 0.17 % administered dose.
